Experimental data taken from patent publication US20220304929A1, “LIPIDS FOR DELIVERY OF CHARGED MATERIAL, FORMULATIONS THEREOF AND METHOD FOR MAKING SAME” (INTEGRATED NANOTHERAPEUTICS INC., priority 2019, published 2022).
“Also recorded” adds a separate entry of the source.

What was measured:
[1] = Apparent pKa of LNP systems (TNS fluorescence assay); format: physicochemical; settings: LNP containing ionizable lipid and FVII siRNA
Procedure: Apparent acid dissociation constants (pKa) of LNP systems were determined according to a procedure described in the literature (Jayaraman, M., et al., Maximizing the potency of siRNA lipid nanoparticles for hepatic gene silencing in vivo. Angewandte Chemie, 2012. 51(34): p. 8529-33). Briefly, 2-(p-toluidino)-6-napthalene sulfonic acid (TNS, Sigma-Aldrich, St. Louis, Mo.) and LNP were diluted in buffer (10 mM HEPES, 10 mM MES and 10 mM ammonium acetate) with pH ranges from 2.5 to 11. Final concentration of TNS or total lipid was 6 μM. Samples were then mixed and fluorescence intensity was measured (Ex/Em: 321/445 nm) using a Perkin Elmer LS55. A sigmoidal best fit analysis was applied and the pKa was measured as the pH at half-maximal fluorescence intensity.

[2] = LNP particle size and polydispersity by dynamic light scattering; format: physicochemical
[3] = RNA or antisense oligonucleotide encapsulation efficiency (Quant-iT Ribogreen RNA / Oligreen ssDNA assays); format: physicochemical
Procedure: The RNA or antisense oligonucleotide encapsulation efficiency was determined using the Quant-iT Ribogreen RNA or Oligreen ssDNA Assays, respectively (Life Technologies, Burlington, ON). Briefly, LNP was incubated at 37° C. for 10 min in the presence or absence of 1% Triton X-100 (Sigma-Aldrich, St. Louis, Mo.) followed by the addition of the Ribogreen or Oligreen reagent. The fluorescence intensity (Ex/Em: 480/520 nm) was determined and samples treated with Triton X-100 represent total nucleic acid while untreated samples represent unencapsulated nucleic acid.
To prepare the LNPs, ionizable lipid, DSPC, cholesterol and PEG-DMPE were dissolved in ethanol. The siRNA was dissolved in pH 4.0-6.2 buffer composed of 10-50 mM acetate, succinate or citrate. In select cases, 10-50 mM 4-(2-Hydroxyethyl)piperazine-1-ethanesulfonic acid (HEPES) or 2-(N-Morpholino)ethanesulfonic acid (MES) buffer was used. LNP were prepared by rapidly mixing the lipid components in ethanol (in molar ratio of 50/10/38.5/1.5 of […]) with nucleic acids in aqueous buffer at a volumetric flow rate ratio of 1:3 (ethanol to aqueous, combined flow rate >12 mL/min) at room temperature. Typically, siRNA/lipids ratios were targeted for 0.056 wt/μmol. The product was then dialyzed against 1× phosphate-buffered saline (PBS) at pH 7.4 for 24 hours to remove residual ethanol and to raise the pH. PBS was refreshed after 4 hours.

[4] = Peptide incorporation into LNP (Peptide:Lipid ratio; BCA or CBQCA protein quantification); format: physicochemical
Procedure: (§1) Lipid concentrations were determined by measuring total cholesterol using the Cholesterol E enzymatic assay kit from Wako Chemicals USA (Richmond, Va.).
Quantification of protein/peptide was performed with the use of either the BCA Protein Assay (Pierce) or the CBQCA Protein Quantitation Kit (Invitrogen) according to the manufacturer's instructions.

[5] = system: factor VII (FVII); experiment: LNP-siRNA activity in the mouse Factor VII model; format: in vivo; settings: C57Bl/6 mice, 24 hours post-injection; for Activity in mediating FVII gene-silencing (residual serum FVII levels): i.v. tail vein, 0.03-0.3 mg/kg siRNA
Procedure: Lipid nanoparticle (LNP) formulations containing cationic lipids of the disclosure and FVII siRNA were injected via a tail vein in C57Bl/6 wild-type mice and the levels of FVII in plasma was measured post injection. The mice were injected with LNP-siRNA at doses of 0.03 (left bar), 0.1 (middle bar) and 0.3 mg/kg (right bar). The cationic lipids incorporated in the LNPs were INT-A001, INT-A002, INT-A003 and INT-A007.
LNPs prepared as described in Example 2 containing siRNA against factor VII (FVII) were diluted with PBS such that injection volumes were maintained at 10 mL/kg body weight and administered (based on siRNA concentration) intravenously via tail vein in 6 to 8 weeks old female C57Bl/6 mice (Charles River Laboratories, Wilmington, Mass.). At 24 hours post-injection, animals were euthanized and blood was collected via intracardiac sampling. Blood samples were allowed to coagulate at 4° C. overnight and the serum was separated followed by centrifugation for 15 min at 12,000 rpm. The serum FVII levels were determined using the Biophen VII chromogenic assay (Aniara, Mason, Ohio) according to the protocol of the manufacturer.

[6] = system: HepG2 cells; experiment: LNP luciferase mRNA expression in cultured HepG2 cells; format: cell-based; settings: 0.125-1 μg/mL luciferase mRNA, 16-24 hr
Procedure: Cells were treated with LNP formulations containing ionizable lipids of the disclosure and luciferase mRNA at concentrations of 0.125-1 μg/mL. The level of luminescence was measured post treatment. From left-to-right, the ionizable lipids incorporated in the LNPs were INT-A001 (white bar), INT-A002 (dotted bar), INT-A003 (black bar) and INT-A004 (gray bar).
The activity of the ionizable lipids in vitro was evaluated in cultured HepG2 cells. LNPs containing Firefly Luciferase mRNA were prepared as described in Example 2. LNPs were diluted to 0.125-1 μg/mL with DMEM media containing 10% FBS and incubated with HepG2 cells for 16-24 hr. Cells were then lysed with Glo-Lysis Buffer (Promega). Equal amounts of Steady-Glo reagent (Promega) was added to each sample and the level of luminescence was determined using a Synergy LX plate reader (BioTek).

[7] = system: Firefly Luciferase mRNA expression in liver; experiment: LNP luciferase mRNA expression in vivo in the liver of mice; parameters: species or system mouse; settings: C57Bl/6 mice, 1 mg/kg mRNA i.v., liver at 4 hours post-injection
Procedure: Lipid nanoparticle (LNP) formulations containing cationic lipids of the disclosure and Luciferase mRNA were injected via a tail vein in C57Bl/6 wild-type mice at mRNA dose of 1 mg/kg and the luminescence in the liver was measured post injection. From left-to-right, the cationic lipids incorporated in the LNP-mRNA were INT-A001, INT-A002, INT-A003 and INT-A004. Untreated animals were injected with phosphate buffered saline (PBS).
To assess in vivo activity, LNPs containing Firefly Luciferase mRNA were prepared as described in Example 2. LNPs were diluted with PBS and administered at 1 mg/kg intravenously via tail vein in 6 to 8 weeks old female C57Bl/6 mice (Charles River Laboratories, Wilmington, Mass.). At 4 hours post-injection, animals were euthanized and the livers were collected. Approximately 100 mg of liver was homogenized in 0.5 mL Glo Lysis Buffer (Promega). The homogenate was further diluted 1:4 with the lysis buffer and then 50 μL of diluted homogenate was added to 50 μL Steady-Glo reagent (Promega). The level of luminescence was determined using a Synergy LX plate reader (BioTek).

[8] = HA incorporation into LNP (HA:Lipid ratio); format: physicochemical; settings: LNP containing ionizable lipid and HA (8-15 kDa)
Procedure: as §1
Hyaluronic acid was used as an example of anionic cargos. LNPs were prepared as described in Example 2 containing HA with a molecular weight of 8-15 kDa.

[9] = LNP containing ionizable lipid and Luciferase mRNA
[10] = LNP containing ionizable lipid and a 4.2 kDa acidic peptide (net charge -3)
[11] = LNP containing ionizable lipid and antisense oligonucleotide
[12] = LNP containing ionizable lipid and siRNA
[13] = LNP containing ionizable lipid and HA (8-15 kDa)
[14] = LNP containing ionizable lipid and a 2.0 kDa acidic peptide (net charge -3)
[15] = LNP containing ionizable lipid and a 2.0 kDa basic peptide (net charge +4)

For CCCCC/C=C\C/C=C\CCCCCCCC(=O)O[C@@H](CCCCCCCC)[C@@H](CCCCCCCC(=O)OCCN(C)C)OC(=O)CCCCCCC/C=C\C/C=C\CCCCC (racemic) [INT-A001, 2-(Dimethylamino)ethyl (±)-syn-9,10-dilinoleoxystearate], the “Apparent pKa” value [1] was 6.3, the “Particle Diameter” value [2, 9] was 43 nm and the “Polydispersity index (PDI)” value [2, 9] was 0.064. For the same compound, the “Particle Diameter” value [2, 10] was 48 nm, the “Polydispersity index (PDI)” value [2, 10] was 0.021 and the “Particle Diameter” value [2, 11] was 44 nm. The “Polydispersity index (PDI)” value [2, 11] was 0.103, the “Particle Diameter” value [2, 12] was 50 nm and the “Polydispersity index (PDI)” value [2, 12] was 0.059. The “Encapsulation Efficiency” value [3, 9] was 96%, the “Encapsulation Efficiency” value [3, 11] was 84% and the “Encapsulation Efficiency” value [3, 12] was 89%. The “Peptide:Lipid” value [4, 10] was 0.161 wt/wt, the “Activity in mediating FVII gene-silencing (residual serum FVII levels)” value (“Activity … (residual serum FVII levels)” below) [5] was “active in mediating gene-silencing” and the “Activity in delivering mRNA and inducing its expression in vitro (luminescence)” value (“Activity … (luminescence)” for short) [6] was “can effectively deliver mRNA”. The “Activity in delivering mRNA and inducing mRNA expression in vivo (liver luminescence)” value (shortened to “Activity … (liver luminescence)”) [7] was “can effectively deliver mRNA”.

For CCCCC/C=C\C/C=C\CCCCCCCC(=O)O[C@@H](CCCCCCCC)[C@@H](CCCCCCCC(=O)OCCCN(CC)CC)OC(=O)CCCCCCC/C=C\C/C=C\CCCCC (racemic) [INT-A002, 3-(Diethylamino)propyl (±)-syn-9,10-dilinoleoxystearate], the “Particle Diameter” value [2, 13] was 83 nm, the “Polydispersity index (PDI)” value [2, 13] was 0.027 and the “Particle Diameter” value [2, 9] was 47 nm. The “Polydispersity index (PDI)” value [2, 9] was 0.053, the “Particle Diameter” value [2, 10] was 62 nm and the “Polydispersity index (PDI)” value [2, 10] was 0.015. The “Particle Diameter” value [2, 11] was 49 nm, the “Polydispersity index (PDI)” value [2, 11] was 0.096 and the “Particle Diameter” value [2, 12] was 52 nm. The “Polydispersity index (PDI)” value [2, 12] was 0.063, the “Encapsulation Efficiency” value [3, 9] was 99% and the “Encapsulation Efficiency” value [3, 11] was 92%. The “Encapsulation Efficiency” value [3, 12] was 97%, the “HA:Lipid” value [8] was 0.093 wt/wt and the “Peptide:Lipid” value [4, 10] was 0.157 wt/wt. For the same compound, the “ED 50 (effective dose to achieve 50% gene-silencing)” value ([5]; i.v. LNP FVII siRNA, estimated) was “less than 0.1 mg/kg”, the “Activity … (residual serum FVII levels)” value [5] was “active in mediating gene-silencing; also recorded: most active” and the “Activity … (luminescence)” value [6] was “can effectively deliver mRNA”. For the same compound, the “Activity … (liver luminescence)” value ([7]; 1 mg/kg) was “can effectively deliver mRNA; also recorded: most active”.

With CCCCC/C=C\C/C=C\CCCCCCCC(=O)O[C@@H](CCCCCCCC)[C@@H](CCCCCCCC(=O)OCCCN(C)C)OC(=O)CCCCCCC/C=C\C/C=C\CCCCC (racemic) [INT-A003, 3-(Dimethylamino)propyl (±)-syn-9,10-dilinoleoxystearate] the “Particle Diameter” value [2, 13] was 64 nm, the “Polydispersity index (PDI)” value [2, 13] was 0.035 and the “Particle Diameter” value [2, 9] was 49 nm. For the same compound, the “Polydispersity index (PDI)” value [2, 9] was 0.050, the “Particle Diameter” value [2, 14] was 142 nm and the “Polydispersity index (PDI)” value [2, 14] was 0.025. For the same compound, the “Particle Diameter” value [2, 10] was 76 nm, the “Polydispersity index (PDI)” value [2, 10] was 0.031 and the “Particle Diameter” value [2, 11] was 54 nm. The “Polydispersity index (PDI)” value [2, 11] was 0.036, the “Particle Diameter” value [2, 12] was 55 nm and the “Polydispersity index (PDI)” value [2, 12] was 0.043. The “Encapsulation Efficiency” value [3, 9] was 99%, the “Encapsulation Efficiency” value [3, 11] was 89% and the “Encapsulation Efficiency” value [3, 12] was 92%. For the same compound, the “HA:Lipid” value [8] was 0.094 wt/wt, the “Peptide:Lipid” value [4, 14] was 0.074 wt/wt and the “Peptide:Lipid” value [4, 10] was 0.160 wt/wt. For the same compound, the “Activity … (residual serum FVII levels)” value [5] was “active in mediating gene-silencing”, the “Activity … (luminescence)” value [6] was “can effectively deliver mRNA; also recorded: most active” and the “Activity … (liver luminescence)” value [7] was “can effectively deliver mRNA”.

With CCCCC/C=C\C/C=C\CCCCCCCC(=O)O[C@@H](CCCCCCCC)[C@@H](CCCCCCCC(=O)OCCN(CC)CC)OC(=O)CCCCCCC/C=C\C/C=C\CCCCC (racemic) [INT-A004, 2-(Diethylamino)ethyl (±)-syn-9,10-dilinoleoxystearate] the “Apparent pKa” value [1] was 5.8, the “Particle Diameter” value [2, 9] was 42 nm and the “Polydispersity index (PDI)” value [2, 9] was 0.090. For the same compound, the “Particle Diameter” value [2, 14] was 59 nm, the “Polydispersity index (PDI)” value [2, 14] was 0.051 and the “Particle Diameter” value [2, 10] was 40 nm. For the same compound, the “Polydispersity index (PDI)” value [2, 10] was 0.034, the “Particle Diameter” value [2, 11] was 45 nm and the “Polydispersity index (PDI)” value [2, 11] was 0.065. The “Particle Diameter” value [2, 12] was 58 nm, the “Polydispersity index (PDI)” value [2, 12] was 0.024 and the “Encapsulation Efficiency” value [3, 9] was 96%. For the same compound, the “Encapsulation Efficiency” value [3, 11] was 88%, the “Encapsulation Efficiency” value [3, 12] was 61% and the “Peptide:Lipid” value [4, 14] was 0.073 wt/wt. For the same compound, the “Peptide:Lipid” value [4, 10] was 0.158 wt/wt, the “Activity … (luminescence)” value [6] was “can effectively deliver mRNA” and the “Activity … (liver luminescence)” value [7] was “can effectively deliver mRNA”.

With CCCCC/C=C\C/C=C\CCCCCCCC(=O)O[C@@H](CCCCCCCC)[C@@H](CCCCCCCC(=O)O)OC(=O)CCCCCCC/C=C\C/C=C\CCCCC (racemic) [INT-A008, (±)-syn-9,10-Dilinoleoxystearic Acid] the “Particle Diameter” value [2, 15] was 39 nm, the “Polydispersity index (PDI)” value [2, 15] was 0.058 and the “Peptide:Lipid” value [4, 15] was 0.104 wt/wt.

For CCCCCCCCC(CCCCCC)C(=O)O[C@@H](CCCCCCCC)[C@@H](CCCCCCCC(=O)O)OC(=O)C(CCCCCC)CCCCCCCC (mixture of isomers) [INT-A009, (±)-syn-9,10-Bis(2-hexyldecanoyloxy)stearic Acid], the “Particle Diameter” value [2, 15] was 39 nm, the “Polydispersity index (PDI)” value [2, 15] was 0.057 and the “Peptide:Lipid” value [4, 15] was 0.121 wt/wt.
